Reference: paper PMC11982498 (Redox Biology, 2025)

How the values were obtained:
HRAS promoter i-motif = test: SPR binding to HRAS promoter i-motif; conditions: MES buffer pH 5.5
HT-22 cells = test: MTT cytotoxicity assay, HT-22; format: cell-based; conditions: Mus musculus, incubation for 48 h
Procedure: SH-SY5Y cells, HepG2 cells, HK-2 cells and HT-22 cells were seeded on 96-well plates (5.0×10^3 per well) with 100 μL of culture medium, and incubated for 12 h at 37 °C in a humidified atmosphere with 5% CO2, and then exposed to various concentrations of B14. After 48 h of treatment at 37 °C in a humidified atmosphere with 5% CO2, 100 μL of 0.5 mg/mL MTT solution was added to each well, and the mixture was further incubated for 4 h. The cells in each well were then treated with DMSO (200 μL for each well), and the culture medium was siphoned off, and the absorbance was recorded at 570 nm. All drug doses were parallel tested in triplicate, and the cytotoxicity was evaluated based on the percentage of cell survival in a dose-dependent manner regarding the negative control. The final IC50 values were determined by using Graph Pad Prism 9.0.

BCL-2 i-motif = test: ESI-MS with BCL-2 i-motif; format: binding; conditions: pH 6.5
Procedure: (§1) The oligomer for BCL-2 promoter […] at concentration of 5 μM was annealed in 1 × BPES buffer with or without 20 μM B14 at 95 °C for 5 min, followed by cooling to room temperature. Mass spectrometry signals were collected by using ESI-MS (Thermo, LCQ DECA Plus XP) and analyzed by using pro-mass.

BCL-2 G4 = test: ESI-MS with BCL-2 G4; format: binding; conditions: pH 7.4
Procedure: as §1
(§2) Figure S5. ESI-MS, UV, CD, and EMSA experiments were performed to examine the effect of B14 on BCL-2 promoter i-motif and G-quadruplex. (A) ESI-MS experiment for oligomer BCL-2 G4 alone, which was annealed in 1 × BPES buffer at pH 7.4. (B) ESI-MS experiment for above oligomer BCL-2 G4 with addition of B14 in 1 × BPES buffer at pH 7.4. (C-D) TO displacement with increasing amount of oligomer BCL-2 i-motif annealed in 1 X BPES buffer at pH 5.5 in the presence of 20 equivalents of B14 or A22. (E) EMSA experiment was performed for the effect of B14 on inducing BCL-2 i-motif formation. The lanes from left to right were as follow: BCL-2 i-motif alone at pH 5.5; BCL-2 i-motif alone at pH 6.2; BCL-2 i-motif plus 1 eq B14 at pH 6.2; BCL-2 i-motif plus 5 eq B14 at pH 6.2; BCL-2 i-motif plus 10 eq B14 at pH 6.2. (F) CD experiment was performed to study the interaction of B14 or A22 with BCL-2 promoter i-motif.

[1] = tested on: BCL-2 promoter C-rich sequence; test: EMSA of BCL-2 i-motif formation; format: binding; conditions: pH 6.2; 1, 5, 10 eq
Procedure: as §2
The DNA oligonucleotides were diluted to 5 μM with 1 × BPES buffer at pH 5.5 or pH 6.2, and different equivalents of compound were added. The mixtures were annealed at 95 °C for 10 min, gradually cooled to room temperature, and incubated at 4 °C overnight. Electrophoresis was carried out using 20% acrylamide Native PAGE (pH 6.4) with 1 × Tris-borate-EDTA (TBE) as running buffer (pH 6.4) at 80 V for 7 h at 4 °C. The gels were then silver-stained and photographed.

APP/PS1 transgenic mice [2] = test: Nest building test (NBT); format: in vivo; conditions: B14 10, 20, 40 mg/kg i.p. every other day
Source text: (§3) Five months old male APP/PS1 mice, weighing 25–33 g, were purchased from Guangdong Medical Laboratory Animal Center and housed in the Laboratory Animal Center of Sun Yat-sen University (Guangzhou, China) for experimentation. All procedures were approved by the Animal Care and Use Committee of Sun Yat-sen University and complied with legal requirements and national guidelines for the care and maintenance of laboratory animals (Approval No. SYSU-IACUC-2024-002032). The mice were housed in a specific pathogen-free environment with a controlled temperature of 22 ± 1 °C and a 12-h dark/light cycle. The mice were fed with a standard diet, and 30 mice were randomly divided into 6 groups (N = 5). Compound B14 was dissolved in saline and administered at doses of 10, 20, or 40 mg/kg. […]
(§4) The spatial memory and learning abilities of the mice were assessed using Morris water maze (MWM), novel object recognition (NOR) and nesting experiments (NBT). The anxiety and depressive behaviors were evaluated through the open field test (OFT) and elevated plus maze (EPM). […]
The nest building test (NBT) assesses fine motor dexterity, cognitive function, and emotional states in mice while minimizing stress. […] After this period, photographs were taken of the paper sheets, and the nests built by the mice were scored.

APP/PS1 transgenic mice [3] = test: Novel object recognition (NOR); format: in vivo; conditions: B14 10, 20, 40 mg/kg i.p. every other day
Source text: as §3, §4
The novel object recognition (NOR) test evaluates mice's memory for familiar objects and their exploration of novel objects. […] The time spent exploring each object was recorded. The mice's learning and memory abilities were assessed by calculating the preference index (PI) using the formula PI = tB / (tA1 + tB).

APP/PS1 transgenic mice [4] = test: Nissl and H&E staining of hippocampus; format: in vivo; conditions: vs model group
Source text: (§5) Five months old male APP/PS1 mice, weighing 25–33 g, were purchased from Guangdong Medical Laboratory Animal Center and housed in the Laboratory Animal Center of Sun Yat-sen University (Guangzhou, China) for experimentation. All procedures were approved by the Animal Care and Use Committee of Sun Yat-sen University and complied with legal requirements and national guidelines for the care and maintenance of laboratory animals (Approval No. SYSU-IACUC-2024-002032). The mice were housed in a specific pathogen-free environment with a controlled temperature of 22 ± 1 °C and a 12-h dark/light cycle. The mice were fed with a standard diet, and 30 mice were randomly divided into 6 groups (N = 5). Compound B14 was dissolved in saline and administered at doses of 10, 20, or 40 mg/kg. APP/PS1 male mice were grown until 6 months of age, and then injected intraperitoneally with compound B14 every other day for 60 days. Behavioral experiments were then conducted, and tissue specimens were collected for biochemical analysis.
(§6) The mice were sacrificed, with their brains and organs isolated and embedded in paraffin. The brains and organs were then sectioned into 6 μm thin slices. These slices were subjected to H&E or Nissl staining (Servicebio, Guangzhou, China). The stained sections were subsequently imaged and analyzed by using microscopy.

APP/PS1 transgenic mice [5] = test: Histopathological examination (HE) of vital organs; conditions: mouse, in vivo
Source text: as §5, §6
Figure S11. […]

## O=C(CCN1CCOCC1)Nc1ccc2c(c1)c(=O)c1cc(NC(=O)CCN3CCOCC3)ccc1n2-c1ccc2occc2c1 [Compound B14]
HRAS promoter i-motif
  Kd: > 50 µM
HT-22 cells
  IC50: > 100 µM
BCL-2 i-motif
  adduct peak in ESI-MS: could bind tightly to BCL-2 i-motif
BCL-2 G4
  adduct peak in ESI-MS: no corresponding binding peak appeared
[1]
  i-motif migration band (EMSA): could induce BCL-2 i-motif formation in a dose-dependent manner
APP/PS1 transgenic mice [2]
  nesting scores (NBT): significantly improved
APP/PS1 transgenic mice [3]
  times to touch new objects and index of preference (NOR): significantly increased
APP/PS1 transgenic mice [4]
  hippocampal neuron damage (HE staining): could reverse the damage of hippocampal neurons in mice
  number of Nissl bodies in CA1-CA4 and DG regions: restored
APP/PS1 transgenic mice [5]
  histopathology of heart, liver, spleen, lungs, kidney: no significant detrimental effect for these organs
